Data on 23 compounds can be found in patent publication US20090062401A1, “DECALINE-DERIVED COMPOUNDS AS […] ACTIVE AGENTS” (UNIVERSITAT DORTMUND, priority 2004, published 2009).

The target in one experiment is 11beta-HSD1 (Homo sapiens, UniProt P28845). Description: biochemical. Particulars: read-out: IC50 Target 11beta-HSD1. The source says: (§1) Assay protocols for Cdc25A, 11βHSD1, 11βHSD2, and AChE are described in detain in the publication of Koch M A, Wittenberg L O, Basu S, Jeyaraj D A, Gourzoulidou E, Reinecke K, Odermatt A, Waldmann H (Proc. Natl. Acad. Sci. U.S.A. 2004 Nov. 30; 101(48):16721-6) and in Koch M A et al., Proc. Natl. Acad. Sci. U.S.A. 2005 Nov. 29; 102 (48):17272-7.

Another experiment addresses VHR (Homo sapiens, UniProt P51452). As to the kind of experiment: VHR phosphatase inhibition, general phosphatase assay using para-nitrophenylphosphate. It is filed as biochemical. Particulars: read-out: IC50 Target VHR. An excerpt: (§2) Assays protocols for the other enzymes mentioned herein (MtPTPA, PP1, VHR, PTP1B) are disclosed in Schweizer R A S, Atanasov, G A, Frey B M, and Odermatt A, Mol. Cell. Endocrinol. 2003, 212, 41-49 and Barratte, B., Meijer L., Galaktionov K. & Beach D, Anticancer Res. 1992, 12, 873-880. For determination of the phosphatase activity, a general phosphatase assay using para-nitrophenylphosphate was applied.

A further experiment deals with T1, Cdc25A (Homo sapiens, UniProt P30304).
T1 sequence (P30304 1-524): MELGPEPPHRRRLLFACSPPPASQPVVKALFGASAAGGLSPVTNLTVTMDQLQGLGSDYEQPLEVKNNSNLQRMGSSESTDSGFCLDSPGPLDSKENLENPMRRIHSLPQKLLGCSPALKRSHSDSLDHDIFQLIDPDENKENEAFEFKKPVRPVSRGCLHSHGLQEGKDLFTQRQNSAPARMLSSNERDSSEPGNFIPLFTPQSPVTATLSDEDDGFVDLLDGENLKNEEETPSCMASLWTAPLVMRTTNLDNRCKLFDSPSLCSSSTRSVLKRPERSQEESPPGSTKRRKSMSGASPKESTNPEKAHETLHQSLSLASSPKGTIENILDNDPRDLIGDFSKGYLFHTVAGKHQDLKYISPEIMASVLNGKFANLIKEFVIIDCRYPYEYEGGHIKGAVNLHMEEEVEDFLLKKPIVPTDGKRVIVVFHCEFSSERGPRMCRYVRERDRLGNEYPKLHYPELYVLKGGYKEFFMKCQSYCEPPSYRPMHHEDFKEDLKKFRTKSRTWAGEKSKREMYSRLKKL
Description: Cdc25A phosphatase inhibition. It is filed as biochemical. Particulars: read-out: IC50 Target Cdc25A.
Source text: as §1

For another experiment, the target named is T2, PTP1B (Homo sapiens, UniProt P18031).
T2 sequence (P18031 1-435): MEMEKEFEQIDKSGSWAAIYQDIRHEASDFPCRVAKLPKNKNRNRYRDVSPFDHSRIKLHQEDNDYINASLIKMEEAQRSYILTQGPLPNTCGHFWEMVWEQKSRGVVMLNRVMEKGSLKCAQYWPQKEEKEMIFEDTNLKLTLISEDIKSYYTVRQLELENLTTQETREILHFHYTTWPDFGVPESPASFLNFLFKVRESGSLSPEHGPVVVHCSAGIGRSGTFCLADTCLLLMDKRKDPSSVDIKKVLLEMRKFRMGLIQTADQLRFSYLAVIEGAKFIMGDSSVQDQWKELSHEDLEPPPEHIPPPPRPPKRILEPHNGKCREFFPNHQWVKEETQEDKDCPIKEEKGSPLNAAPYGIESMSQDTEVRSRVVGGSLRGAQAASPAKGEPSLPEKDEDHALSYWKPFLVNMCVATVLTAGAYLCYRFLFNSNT
Description: PTP1B phosphatase inhibition, general phosphatase assay using para-nitrophenylphosphate. Particulars: read-out: IC50 Target PTP1B. It counts as biochemical.
Source text: as §2

Sequence of VHR (P51452 whole entry, species assumed): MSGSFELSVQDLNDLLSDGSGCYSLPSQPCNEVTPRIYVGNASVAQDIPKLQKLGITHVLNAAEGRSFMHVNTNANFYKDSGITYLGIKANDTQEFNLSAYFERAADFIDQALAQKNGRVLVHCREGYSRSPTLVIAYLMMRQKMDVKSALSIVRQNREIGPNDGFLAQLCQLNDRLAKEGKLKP
Sequence of 11beta-HSD1 (P28845 whole entry): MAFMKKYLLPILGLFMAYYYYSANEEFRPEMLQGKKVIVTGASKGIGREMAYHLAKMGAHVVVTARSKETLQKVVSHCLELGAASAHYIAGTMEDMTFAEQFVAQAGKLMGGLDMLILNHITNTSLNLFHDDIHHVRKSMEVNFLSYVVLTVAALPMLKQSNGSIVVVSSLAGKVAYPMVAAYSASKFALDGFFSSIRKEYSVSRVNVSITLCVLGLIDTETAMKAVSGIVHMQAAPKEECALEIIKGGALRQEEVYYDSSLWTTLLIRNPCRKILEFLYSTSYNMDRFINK

As for `CCCCCCCCCCC/C=C1\C[C@@]2(C)C(=C(C)C1=O)CCC[C@@H]2O` [Compound 22, (3E,4aS,5S)-3-Dodecyliden-4,4a,5,6,7,8-hexahydro-5-hydroxy-1,4a-dimethylnaphthalen-2(3H)-one], the IC50 at 11beta-HSD1 was under 10 µM.

In the case of `CC1=C2CCC[C@H](O)[C@@]2(C)C/C(=C\C=C\c2ccco2)C1=O` [Compound 60, (3E,4aS,5S)-3-[(E)-3-(Furan-2-yl)allyliden]-4,4a,5,6,7,8-hexahydro-5-hydroxy-1,4a-dimethylnaphthalen-2(3H)-one], the IC50 at VHR, on Cdc25A and at PTP1B was 10 to 50 µM throughout.

Take `CC1=C2CCC[C@H](O)[C@@]2(C)C/C(=C\c2ccc(C#CCN(C)C)cc2)C1=O` [Compound 51, (3E,4aS,5S)-3-{4-[3-(Dimethylamino)prop-1-inyl]benzyliden}-4,4a,5,6,7,8-hexahydro-5-hydroxy-1,4a-dimethylnaphthalen-2(3H)-one]: the IC50 at VHR is 10 to 50 µM; on Cdc25A, under 10 µM; on PTP1B, 10 to 50 µM.

As to `CC1=C2CCC[C@H](O)[C@@]2(C)CC(=Cc2ccc(NC3CCCCC3)cc2)C1=O` [Compound 399, (4aS,5S)-3-(4-Cyclohexylamino-benzylidene)-5-hydroxy-1,4a-dimethyl-4,4a,5,6,7,8-hexahydro-3H-naphthalen-2-one], on 11beta-HSD1, the IC50 was under 10 µM.

Consider `CC1(Cc2cc(Br)cc(Br)c2)C(=O)/C(=C/c2ccc(I)cc2)CC2(C)C1CCCC21OCCO1` (centres unmarked) [Compound 416, (7′E)-5′-(3,5-Dibromobenzyl)-7′-(4-iodo-benzylidene)-5′,8a′-dimethylhexahydro-2′H-spiro[1,3-dioxolane-2,1′-naphthalen]-6′(5′H)-one], for which the IC50 is under 10 µM at 11beta-HSD1 and 10 to 50 µM at PTP1B.

`CC1=C2CCC[C@H](O)[C@@]2(C)C/C(=C\c2ccc(C#CC3CCCCC3)cc2)C1=O` [Compound 73, (3E,4aS,5S)-3-[4-(2-Cyclohexyl-ethinyl)benzyliden]-4,4a,5,6,7,8-hexahydro-5-hydroxy-1,4a-dimethylnaphthalen-2(3H)-one]: the IC50 at 11beta-HSD1 was under 10 µM.

Take `CCCCC1(C)C(=O)CC[C@@]2(C)C1CCC[C@@H]2O` (stereo partly drawn) [Compound 414, (4aS,5S)-1-Butyl-5-hydroxy-1,4a-dimethyl-1-octahydro-naphthalen-2-one]: the IC50 on Cdc25A and at PTP1B was 10 to 50 µM in each case.

For `CCOC(C#Cc1ccc(/C=C2\C[C@@]3(C)C(=C(C)C2=O)CCC[C@@H]3O)cc1)OCC` [Compound 46, (3E,4aS,5S)-3-[4-(3,3-Diethoxyprop-1-inyl)benzyliden]-4,4a,5,6,7,8-hexahydro-5-hydroxy-1,4a-dimethylnaphthalen-2(3H)-on], the IC50 on VHR was 10 to 50 µM; at Cdc25A, under 10 µM; on PTP1B, 10 to 50 µM.

Turning to `CC1=C2CCC[C@H](O)[C@@]2(C)C/C(=C\c2ccc(F)c(F)c2)C1=O` [Compound 1, (3E,4aS,5S)-3-(3,4-Difluorbenzyliden)-4,4a,5,6,7,8-hexahydro-5-hydroxy-1,4a-dimethyl-naphthalen-2(3H)-one], the IC50 on 11beta-HSD1 was under 10 µM; at VHR it was 10 to 50 µM.

Consider `CCc1ccc(/C=C2\C[C@@]3(C)C(=C(C)C2=O)CCC[C@@H]3O)c(C)c1` [Compound 23, (3E,4aS,5S)-3-(4-Ethyl-2-methylbenzyliden)-4,4a,5,6,7,8-hexahydro-5-hydroxy-1,4a-dimethylnaphthalen-2(3H)-one], for which the IC50 on 11beta-HSD1 was under 10 µM.

In the case of `CC1(Cc2cccc(I)c2)C(=O)CC[C@@]2(C)C1CCC[C@@H]2O` (stereo partly drawn) [Compound 398, (4aS,5S)-5-Hydroxy-1-(3-iodo-benzyl)-1,4a-dimethyl-octahydro-naphthalen-2-one], the IC50 at VHR, at Cdc25A and at PTP1B was 10 to 50 µM in each case.

As to `C=C1C(C)=C2CCC[C@H](O)[C@@]2(C)C/C1=C\CCCC` [Compound 98, (1S,7E,8aS)-1,2,3,4,6,7,8,8a-Octahydro-5,8a-dimethyl-6-methylen-7-pentylidennaphthalen-1-ol], the IC50 at 11beta-HSD1 is under 10 µM.

On to `CCCCC#Cc1ccc(/C=C2\C[C@@]3(C)C(=C(C)C2=O)CCC[C@@H]3O)cc1` [Compound 40, (3E,4aS,5S)-3-[4-(Hex-1-inyl)benzyliden]-4,4a,5,6,7,8-hexahydro-5-hydroxy-1,4a-dimethyl-naphthalen-2(3H)-one], for which the IC50 on VHR, on Cdc25A and on PTP1B was 10 to 50 µM throughout.

On to `CC1=C2CCC[C@H](O)[C@@]2(C)C/C(=C\c2cccnc2)C1=O` [Compound 10, (3E,4aS,5S)-4,4a,5,6,7,8-Hexahydro-5-hydroxy-1,4a-dimethyl-3-[(pyridin-3-yl)methylen]naphthalen-2(3H)-one], for which the IC50 at 11beta-HSD1 was under 10 µM.

Take `CSc1ccc(/C=C2\C[C@@]3(C)C(=C(C)C2=O)CCC[C@@H]3O)cc1` [Compound 11, (3E,4aS,5S)-3-[4-(Methylthio)benzyliden]-4,4a,5,6,7,8-hexahydro-5-hydroxy-1,4a-dimethylnaphthalen-2(3H)-one]: the IC50 at 11beta-HSD1 was under 10 µM.

As to `CC1C=CCC2CCC(=Cc3ccco3)C(=O)C12` (centres unmarked) [Compound 394, 2-Furan-2-ylmethylene-8-methyl-3,4,4a,5,8,8a-hexahydro-2H-naphthalen-1-one], the values for the IC50 on VHR, at Cdc25A and on PTP1B were 10 to 50 µM, 10 to 50 µM and under 10 µM, respectively.

As to `CC1=C2CCC[C@H](O)[C@@]2(C)C/C(=C\c2ccoc2)C1=O` [Compound 8, (3E,4aS,5S)-3-[(Furan-3-yl)methylen]-4,4a,5,6,7,8-hexahydro-5-hydroxy-1,4a-dimethylnaphthalen-2(3H)-one], the figures for the IC50 on VHR, on Cdc25A and on PTP1B were under 10 µM, 10 to 50 µM and 10 to 50 µM, respectively.

Regarding `CC1=C2CCC[C@H](O)[C@@]2(C)C/C(=C\c2ccc(Br)cc2)C1=O` [Compound 65, (3E,4aS,5S)-3-(4-Brombenzyliden)-4,4a,5,6,7,8-hexahydro-5-hydroxy-1,4a-dimethylnaphthalen-2(3H)-one], at 11beta-HSD1, the IC50 lay in the range of 10 to 50 µM.

Turning to `CC1=C2CCC[C@H](O)[C@@]2(C)C/C(=C\c2ccc(C#CC(C)(C)O)cc2)C1=O` [Compound 44, (3E,4aS,5S)-3-[4-(3-Hydroxy-3-methylbut-1-inyl)benzyliden]-4,4a,5,6,7,8-hexahydro-5-hydroxy-1,4a-dimethyl-naphthalen-2(3H)-one], the IC50 on VHR, on Cdc25A and at PTP1B was 10 to 50 µM throughout.

Consider `C=C1C(C)=C2CCC[C@H](O)[C@@]2(C)C/C1=C\c1ccccc1` [Compound 97, (1S,7E,8aS)-7-Benzyliden-1,2,3,4,6,7,8,8a-octahydro-5,8a-dimethyl-6-methylennaphthalen-1-ol], for which, on 11beta-HSD1, the IC50 is under 10 µM.

With `COc1ccc(/C=C2\C[C@@]3(C)C(=C(C)C2=O)CCC[C@@H]3O)c(O)c1` [Compound 14, (3E,4aS,5S)-3-(2-Hydroxy-4-methoxybenzyliden)-4,4a,5,6,7,8-hexahydro-5-hydroxy-1,4a-dimethylnaphthalen-2(3H)-one], the IC50 on 11beta-HSD1 was under 10 µM.

Regarding `CC1=C2CCC[C@H](O)[C@@]2(C)C/C(=C\c2ccc(C#CC(C)OC(C)(C)C)cc2)C1=O` (stereo partly drawn) [Compound 38, (3E,4aS,5S)-3-[4-(3-tert-Butoxybut-1-inyl)benzyliden]-4,4a,5,6,7,8-hexahydro-5-hydroxy-1,4a-dimethylnaphthalen-2(3H)-one], the IC50 on VHR was 10 to 50 µM; on Cdc25A, under 10 µM; at PTP1B it was 10 to 50 µM.

As for `CC1C=CCC2CCCC(=O)C12` (centres unmarked) [Compound 407, 8-Methyl-3,4,4a,5,8,8a-hexahydro-2H-naphthalen-1-one], the IC50 at 11beta-HSD1 was under 10 µM.
